Measurements as given in the NIST ThermoML archive (doi:10.1021/acs.jced.8b00213).

Legend:
[1] = refractive index (Na D-line) (dimensionless); xn = mol fraction of the nth substance listed; conditions: 100 kPa, Liquid, Standard Abbe refractometry, x1 = 0.25
[2] = xn = mol fraction of the nth substance listed; conditions: 100 kPa, Liquid, x1 = 0.25; for electrical conductivity: Alternating current cell with electrodes; for viscosity: Falling or rolling sphere viscometry; for speed of sound: Single path-length method; for mass density: Vibrating tube method

C[N+](C)(C)Cc1ccccc1.[Cl-] [trimethylbenzylammonium chloride] + OCCOCCO
Conditions | electrical conductivity, [2] [S/m] | mass density, [2] [kg/m3] | refractive index, [1] | speed of sound, [2] [m/s] | viscosity, [2] [mPa·s]
283.15 K | 0.088 | 1120.06 | 1.4954 | 1782.6 | 263.4
288.15 K | 0.109 | 1116.91 | 1.494 | 1769 | 185.4
293.15 K | 0.132 | 1113.75 | 1.4925 | 1755.8 | 134.1
298.15 K | 0.165 | 1110.6 | 1.4911 | 1742.9 | 98.6
303.15 K | 0.201 | 1107.46 | 1.4897 | 1730.2 | 74.8
308.15 K | 0.254 | 1104.33 | 1.4884 | 1717.7 | 57.9
313.15 K | 0.311 | 1101.21 | 1.4869 | 1705.3 | 44.4
318.15 K | 0.356 | 1098.09 | 1.4855 | 1693 | 34.8
323.15 K | 0.398 | 1094.99 | 1.4841 | 1680.8 | 27.8
328.15 K | 0.474 | 1091.89 | 1.4826 | 1668.7 | 23.2
333.15 K | 0.539 | 1088.79 | 1.4813 | 1656.6 | 18.7
338.15 K | 0.611 | 1085.7 | 1.4798 | 1644.7 | 16
343.15 K | 0.681 | 1082.63 | 1.4784 | 1633.1 | 14.2
